Measured values taken from BindingDB's records for doi:10.7270/Q2F769WQ (University of Pittsburgh, 2007).

biological target: T1, Dual specificity protein phosphatase 1 (Homo sapiens, UniProt P28562); test: concentration-response of DUSP1 blockers – biochemical, in vitro, confirmation, dose response (AID 551); conditions: pH 7; 22 °C
T1 sequence (P28562 whole entry): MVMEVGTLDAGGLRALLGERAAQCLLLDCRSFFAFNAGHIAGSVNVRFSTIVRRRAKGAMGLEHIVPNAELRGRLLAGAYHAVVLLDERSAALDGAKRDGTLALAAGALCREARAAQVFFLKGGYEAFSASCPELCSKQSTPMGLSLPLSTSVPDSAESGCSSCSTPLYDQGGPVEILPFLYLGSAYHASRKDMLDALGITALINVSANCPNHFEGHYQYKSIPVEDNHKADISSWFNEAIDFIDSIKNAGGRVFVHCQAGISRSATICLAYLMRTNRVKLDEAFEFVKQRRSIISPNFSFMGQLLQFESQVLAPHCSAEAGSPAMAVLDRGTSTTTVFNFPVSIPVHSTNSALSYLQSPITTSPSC

Row | SMILES | IC50 [µM]
1 | O=C(c1cccn2c(=O)c3ccc(Cl)cc3nc12)N1CCN(Cc2ccc3c(c2)OCO3)CC1 [3-chloro-6-(4-piperonylpiperazine-1-carbonyl)pyrido[2,1-b]quinazolin-11-one] | > 50
2 | CCn1nc(-c2cccs2)nc2c(=O)n(C)c(=O)nc1-2 [1-ethyl-6-methyl-3-thiophen-2-yl-pyrimido[5,4-e][1,2,4]triazine-5,7-dione] | 0.158
3 | CCCCn1c(SCC(=O)c2ccc(OC)cc2OC)nc2cc(S(N)(=O)=O)ccc21 [1-butyl-2-[2-(2,4-dimethoxyphenyl)-2-oxidanylidene-ethyl]sulfanyl-benzimidazole-5-sulfonamide] | > 50
4 | Nc1nc2c(s1)CCc1c-2cnn1-c1ccccc1 [MLS000085948] | > 50
5 | O=C(c1ccc2c(=O)n(C3CCCC3)c(=S)[nH]c2c1)N1CCN(C2CCCCC2)CC1 [7-[(4-cyclohexyl-1-piperazinyl)-oxomethyl]-3-cyclopentyl-2-sulfanylidene-1H-quinazolin-4-one] | > 50
6 | CC(=O)[C@@H]1[C@@H]2C(=O)N(c3ccc(F)c(Cl)c3)C(=O)[C@@H]2C2c3ccccc3C=CN21 (stereo partly specified) [MLS000040594] | > 50
7 | CCOC(=O)N1CCC(NC(=O)c2cccn3c(=O)c4cc(Br)ccc4nc23)CC1 [4-[(2-bromo-11-keto-pyrido[2,1-b]quinazoline-6-carbonyl)amino]piperidine-1-carboxylic acid ethyl ester] | > 50
8 | COc1ccc(-n2nnnc2SCC(=O)Nc2ccc3c(c2)OCCO3)c(OC)c1 [MLS000071837] | > 50
9 | COc1ccc(S(=O)(=O)N2CCC(NC(=O)Nc3ccc(C)cc3)CC2)cc1 [1-[1-(4-Methoxy-benzenesulfonyl)-piperidin-4-yl]-3-p-tolyl-urea] | > 50
10 | Cc1nn2c(-c3cccc(NC(=O)c4ccco4)c3)nnc2c2ccccc12 [MLS000097401] | > 50
11 | O=c1c2ccc[nH]c-2c(Nc2ccc(S(=O)(=O)N3CCCCCC3)cc2)n1Cc1ccccc1 [7-[[4-(azepan-1-ylsulfonyl)phenyl]amino]-6-(phenylmethyl)-7H-pyrrolo[3,4-b]pyridin-5-one] | > 50
12 | CC12CC(NC(=O)N1c1ccc(C(=O)N3CCN(c4ccc(F)cc4)CC3)cc1)c1ccccc1O2 (stereo unspecified) [SMR000026617] | > 50
13 | Cc1ccc(-c2csc(NC(=O)c3ccno3)n2)cc1 [MLS000081820] | 39
14 | O=C1CC(c2ccccc2)c2cc(O)ccc2O1 (stereo unspecified) [6-hydroxy-4-phenyl-3,4-dihydro-2H-1-benzopyran-2-one] | 49.2
15 | [O-]/[N+](=C/c1ccc(F)cc1)c1ccccc1 [(E)-(4-fluorobenzylidene)(phenyl)azane oxide] | > 50
16 | O=c1c2cc(N3CCOCC3)ccc2[nH]c(=S)n1Cc1ccco1 [3-(2-furanylmethyl)-6-(4-morpholinyl)-2-sulfanylidene-1H-quinazolin-4-one] | > 50
17 | Cc1ccc(Nc2nc(CSc3nnnn3-c3ccccc3)cc(=O)[nH]2)cc1 [2-[(4-methylphenyl)amino]-6-{[(1-phenyl-1H-tetrazol-5-yl)thio]methyl}-4(3H)-pyrimidinone] | > 50
18 | CC(NC(=O)c1ccc2c(c1)OCO2)C1CCCO1 (stereo unspecified) [MLS000065753] | > 50

Row | SMILES | IC50 [µM]
19 | CCOC(=O)CC(=O)CSc1nnc2sc3ccccc3n12 [3-keto-4-([1,2,4]triazolo[3,4-b][1,3]benzothiazol-1-ylthio)butyric acid ethyl ester] | > 50
20 | COC(=O)CCC(=O)Oc1ccc(OC(=O)CCC(=O)OC)cc1 [4-O-[4-(4-methoxy-4-oxobutanoyl)oxyphenyl] 1-O-methyl butanedioate] | > 50
21 | Cc1cccc(NC(=O)c2cc(NC(=O)C3CCCCC3C(=O)O)ccc2N2CCCCC2)c1 (stereo unspecified) [2-({[3-{[(3-methylphenyl)amino]carbonyl}-4-(1-piperidinyl)phenyl]amino}carbonyl)cyclohexanecarboxylic acid] | 49.2
22 | CCc1ccc(NC(=O)CSc2nc3ccccc3c(=O)n2CCN2CCOCC2)cc1 [MLS000095236] | 45.8
23 | [O-]/[N+](=C\c1ccncc1)c1ccccc1 | 49.9
24 | O=C1C=Cc2ccccc2C1=O [1,2-dihydronaphthalene-1,2-dione] | 18.4
25 | CCCCCNC(=O)c1ccc2c(=O)[nH]c3c(C(=O)NCC4CCCO4)sc(=S)n3c2c1 (stereo unspecified) [5-oxo-N3-(2-oxolanylmethyl)-N8-pentyl-1-sulfanylidene-4H-thiazolo[3,4-a]quinazoline-3,8-dicarboxamide] | 38.4
26 | Cn1c(=O)oc2cc(S(=O)(=O)NCCC(=O)NC3CCCC3)ccc21 [MLS000093068] | > 50
27 | COc1ccc(C(=O)CSc2nnc(CNC(=O)c3ccc(OC)c(OC)c3)n2C)cc1 [3,4-dimethoxy-N-[(5-{[2-(4-methoxyphenyl)-2-oxoethyl]thio}-4-methyl-4H-1,2,4-triazol-3-yl)methyl]benzamide] | > 50
28 | CCn1nc(-c2ccccc2)nc2c(=O)n(C)c(=O)nc1-2 [1-Ethyl-6-methyl-3-phenyl-1H-pyrimido[5,4-e][1,2,4]triazine-5,7-dione] | 0.197
29 | C=CCn1c(NC(=O)c2ccccc2Cl)c(C#N)c2nc3ccccc3nc21 [2-chloro-N-(3-cyano-1-prop-2-enyl-2-pyrrolo[3,2-b]quinoxalinyl)benzamide] | > 50
30 | O=C(Nc1cccc(-c2nc3ccccc3[nH]2)c1)c1cccc(NC(=O)c2ccco2)c1 [N-[3-[[3-(1H-benzimidazol-2-yl)phenyl]carbamoyl]phenyl]furan-2-carboxamide] | > 50
31 | Cc1cc2n(n1)SC(Nc1ccccc1)N2 (stereo unspecified) [(6-methyl-2,5-dihydropyrazolo[1,5-b][1,2,4]thiadiazol-2-yl)-phenyl-amine] | > 50
32 | COC(=O)C1C(C)=NC2=C(C(=O)c3ccccc32)C1c1ccc(-c2ccc(C(=O)O)cc2)o1 (stereo unspecified) [4-{5-[3-(methoxycarbonyl)-2-methyl-5-oxo-4,5-dihydro-1H-indeno[1,2-b]pyridin-4-yl]-2-furyl}benzoic acid] | > 50
33 | Cc1ccc(C)c(-n2nnnc2SCC(=O)c2ccc3c(c2)NC(=O)CO3)c1 [6-[2-[1-(2,5-dimethylphenyl)tetrazol-5-yl]sulfanylacetyl]-4H-1,4-benzoxazin-3-one] | > 50
34 | Cc1nn(C(C)C(=O)N2CCCCC2)c(=O)c2c1sc1ccccc12 (stereo unspecified) [2-(2-keto-1-methyl-2-piperidino-ethyl)-4-methyl-benzothiopheno[2,3-d]pyridazin-1-one] | > 50
35 | CCCCCC1CCC(C(=O)O)CC1 (stereo unspecified) [SMR000019012] | > 50

Other lines, results leading:

Row | IC50 [µM] | SMILES
36 | 8.85 | Cc1c(N=c2c(=O)c3ccccc3c2=O)c(=O)n(-c2ccccc2)n1C [MLS000105950]
37 | 7.66 | O=C(OC1CCCCC1)c1ccc2c(c1)C1C=CCC1C(C(=O)O)N2 (stereo unspecified) [SMR000019385]
38 | 15.8 | CCOC(=O)c1ccc2c(c1)C1C=CCC1C(C(=O)O)N2 (stereo unspecified) [MLS-0025126.0001]
39 | 36.1 | CCOc1cc(/C=C(/C#N)c2ccc(F)cc2)ccc1OCc1ccc(C(=O)O)o1 [5-[[4-[(E)-2-cyano-2-(4-fluorophenyl)ethenyl]-2-ethoxyphenoxy]methyl]furan-2-carboxylic acid]
40 | 6.53 | CCCCCC#CCC#CCC#CCC#CCCCC(=O)O
41 | 23.1 | CC(C)Cn1c(N)c(C(=O)COC(=O)c2cc(-c3ccco3)nc3ccccc23)c(=O)n(C)c1=O [2-(2-furanyl)-4-quinolinecarboxylic acid [2-[4-amino-1-methyl-3-(2-methylpropyl)-2,6-dioxo-5-pyrimidinyl]-2-oxoethyl] ester]
42 | 12.3 | O=C(Nc1ccc2nc(-c3ccco3)c(-c3ccco3)nc2c1)N1CCCCCC1
43 | 12 | Cc1ccc(C)n1-c1cccc(C(=O)O)c1
44 | 26.9 | COc1ccc(-c2cc3nc(C4CCN(C(=O)OC(C)(C)C)CC4)c(C(=O)O)cn3n2)cc1 [2-(4-methoxyphenyl)-5-[1-[(2-methylpropan-2-yl)oxy-oxomethyl]-4-piperidinyl]-6-pyrazolo[1,5-a]pyrimidinecarboxylic acid]
45 | 16.1 | COc1ccc2noc3c2c1C(=O)c1ccccc1-3 [MLS000106874]
46 | 10.4 | CC(C)Sc1nc2sc3c(c2c2nnc(SCC(=O)NCc4ccco4)n12)CCCC3 [MLS000082957]
47 | 17 | COc1ccc(Cn2c(C)nc3c(c2=O)c2nc4ccccc4nc2n3Cc2ccco2)cc1 [MLS000079944]
48 | 11.4 | CCn1c(SCC(=O)Nc2ccc3c(c2)c2ccccc2n3CC)nnc1-c1ccco1 [MLS000050867]
49 | 14.2 | O=C(NC1(O)C(=O)c2ccccc2C1=O)c1ccccc1 [N-(2-hydroxy-1,3-dioxo-2-indenyl)benzamide]
50 | 15.3 | COc1ccc(-n2c(NC(=O)c3ccco3)c(C#N)c3nc4ccccc4nc32)cc1 [MLS000079925]
51 | 14 | N#Cc1c(NC(=O)c2ccc(Br)o2)n(-c2ccccc2)c2nc3ccccc3nc12 [5-bromanyl-N-(3-cyano-1-phenyl-pyrrolo[3,2-b]quinoxalin-2-yl)furan-2-carboxamide]
52 | 35.9 | COC(=O)c1ccccc1NC(=O)CN1C(=O)C2CCCN2c2ncc(Cl)cc21 (stereo unspecified) [MLS000094302]
53 | 12.4 | CCCSc1nnc(NC(=O)c2sc3nc(-c4cccs4)ccc3c2N)s1 [3-amino-N-(5-propylsulfanyl-1,3,4-thiadiazol-2-yl)-6-thiophen-2-ylthieno[2,3-b]pyridine-2-carboxamide]
54 | 21.6 | O=C(Nc1ccccc1)c1ccc2nc(-c3ccco3)c(-c3ccco3)nc2c1 [2,3-di-2-furyl-N-phenyl-6-quinoxalinecarboxamide]
55 | 0.136 | N#Cc1c(N2CCCC2)nc(N)c2c(N)nc(N3CCCC3)cc12 [SMR000061605]
56 | 31.1 | Cc1nc2c(C(=O)NCCC3=CCCCC3)c[nH]n2c(=O)c1Cl [6-chloro-N-(2-cyclohex-1-en-1-ylethyl)-7-hydroxy-5-methylpyrazolo[1,5-a]pyrimidine-3-carboxamide]
